Assay results published in ChEMBL document CHEMBL1129522, “Inhibitors of acyl-CoA:cholesterol O-acyltransferase. 17. Structure-activity relationships of several series of compounds derived from N-chlorosulfonyl isocyanate” (J Med Chem, 1996).
pIC50: −log10 of the molar value. Values joined by “and” are separate entries in the source; they are usually repeats but may differ in a detail not shown here. Identical values can stand only once.

Assays:
[1] = biological target: T1, Sterol O-acyltransferase 1 (Rattus norvegicus, UniProt O70536); assay: In vitro inhibitory activity against acyl coenzyme A:cholesterol acyltransferase 1 in microsomes of rat liver
T1 sequence (O70536 whole entry): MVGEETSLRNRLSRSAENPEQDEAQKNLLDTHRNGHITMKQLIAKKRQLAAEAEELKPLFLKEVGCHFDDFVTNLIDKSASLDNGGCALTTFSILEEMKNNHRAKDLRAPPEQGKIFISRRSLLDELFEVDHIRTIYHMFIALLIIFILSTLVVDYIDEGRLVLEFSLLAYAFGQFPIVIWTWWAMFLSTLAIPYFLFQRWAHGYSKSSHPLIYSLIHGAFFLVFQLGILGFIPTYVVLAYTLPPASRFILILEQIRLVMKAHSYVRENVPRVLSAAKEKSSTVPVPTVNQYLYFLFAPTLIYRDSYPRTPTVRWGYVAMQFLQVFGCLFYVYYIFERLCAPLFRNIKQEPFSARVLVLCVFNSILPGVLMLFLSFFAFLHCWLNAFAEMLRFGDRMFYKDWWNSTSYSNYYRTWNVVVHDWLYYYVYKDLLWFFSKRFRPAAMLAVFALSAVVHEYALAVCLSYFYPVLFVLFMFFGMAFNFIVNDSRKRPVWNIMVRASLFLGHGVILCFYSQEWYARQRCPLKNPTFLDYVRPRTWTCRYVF

[2] = system: Rattus norvegicus; assay: Acute in vivo activity measured by total plasma cholesterol concentration levels (TC) at 30 mg/kg dose; format: functional
[3] = biological target: T2, Sterol O-acyltransferase 1 (Rattus norvegicus) (UniProt O70536); assay: Acute in vivo activity was measured by the total plasma cholesterol concentration levels(TC) at dose 3 mg/kg; format: functional, organism-based; design: dose 3 mg/kg
T2 sequence (whole entry): T1 sequence (O70536 whole entry)

[4] = biological target: T2, Sterol O-acyltransferase 1 (Rattus norvegicus); assay: Chronic in vivo activity was measured by the concentration of high density lipoproteins (HDL) in cholesterol fed rats; format: functional, organism-based
[5] = biological target: T2, Sterol O-acyltransferase 1 (Rattus norvegicus); assay: Chronic in vivo activity was measured by the total cholesterol concentration levels in cholesterol fed rats; format: functional, organism-based

| Delta HDL [4] | Delta TC [5] | Compound | pIC50 [1] | Delta TC [2] | Delta TC [3] |
| --- | --- | --- | --- | --- | --- |
| – | – | CCCCCCC(C)OS(=O)(=O)NC(=O)Nc1c(C(C)C)cccc1C(C)C (stereo not drawn) | 4.46 | -51% | 10% |
| 92% | -35% | CC(C)c1cccc(C(C)C)c1NC(=O)NS(=O)(=O)N(C1CCCCC1)C1CCCCC1 | 6.64 | – | -60% |
| 19% | -51% | CCCCCCCCCCCCCCN(C)S(=O)(=O)NC(=O)Nc1c(C(C)C)cccc1C(C)C | 6.48 | – | -65% |
| 43% | -48% | CC(C)c1cccc(C(C)C)c1NC(=O)NS(=O)(=O)N(C(C)C)C(C)(C)C | 6.85 | -17% | -55% |
| 170% | -36% | CC(C)c1cccc(C(C)C)c1NC(=O)NS(=O)(=O)N(c1ccccc1)c1ccccc1 | 4.80 | – | -27% |
| – | -55% and -52% | CCCCCCCCCCCCOS(=O)(=O)NC(=O)Nc1c(C(C)C)cccc1C(C)C | – | – | -34% and -53% |
| 43% | -45% | CC(C)c1cccc(C(C)C)c1NC(=O)NS(=O)(=O)N(C)CCc1ccccc1 | 5.77 | – | -38% |
| – | – | CCCCCCOS(=O)(=O)NC(=O)Oc1c(C(C)(C)C)cc(C)cc1C(C)(C)C | 4.02 | -56% | -14% |
| 123% | -56% | CC(C)c1cccc(C(C)C)c1NC(=O)NS(=O)(=O)N(CC1CCCO1)CC1CCCO1 (stereo not drawn) | 5.77 | – | -45% |
| – | – | CC(C)c1cccc(C(C)C)c1OC(=O)N(C)S(=O)(=O)Oc1c(C(C)C)cccc1C(C)C | 4.30 | -64% | -18% |
| 30% | -38% | CCCCCCCCCCCCCCCCCCOS(=O)(=O)NC(=O)Nc1c(C(C)C)cccc1C(C)C | 4.85 | – | -5% |
| 207% | -69% | CCCCCCN(CCCCCC)S(=O)(=O)NC(=O)Nc1c(C(C)C)cccc1C(C)C | 6.29 | – | -63% |
| – | – | CCCCCCCCCCCCCCCCOS(=O)(=O)NC(=O)Oc1c(C(C)C)cccc1C(C)C | 4.99 | -60% | -42% |
| 123% | -64% | CCCCCCCCN(C)S(=O)(=O)NC(=O)Nc1c(C(C)C)cccc1C(C)C | 5.42 | – | -57% |
| – | – | CCCCCCOS(=O)(=O)NC(=O)Oc1c(C(C)C)cccc1C(C)C | 4.40 | -52% | -18% |
| – | – | CC(C)c1cccc(C(C)C)c1OS(=O)(=O)NC(=O)OC1[C@@H](C(C)C)CCC[C@H]1C(C)C (stereo partly drawn) | 5.44 | -70% | -29% |
| – | – | Cc1cc(C(C)(C)C)c(OC(=O)NS(=O)(=O)Oc2ccccc2)c(C(C)(C)C)c1 | 4.05 | -65% | -15% |
| 94% | -63% | CC(C)c1cccc(C(C)C)c1NC(=O)NS(=O)(=O)N(C(C)C)C1CCCCC1 | 6.44 | – | -60% |
| – | – | CC(C)c1cccc(C(C)C)c1OS(=O)(=O)NC(=O)Oc1c(C(C)(C)C)cc(CN(C)C)cc1C(C)(C)C | 4.66 | 2% | – |
| 133% | -68% | CC(C)CCN(CCC(C)C)S(=O)(=O)NC(=O)Nc1c(C(C)C)cccc1C(C)C | 6.38 | – | -66% |
| – | – | CCc1cccc(CC)c1COC(=O)NS(=O)(=O)Oc1c(C(C)C)cccc1C(C)C | 4.70 | -2% | – |

| Delta HDL [4] | Delta TC [5] | Compound | pIC50 [1] | Delta TC [2] | Delta TC [3] |
| --- | --- | --- | --- | --- | --- |
| – | – | Cc1cccc(C(C)(C)C)c1OC(=O)NS(=O)(=O)Oc1c(C(C)C)cccc1C(C)C | 4.31 | -15% | – |
| 122% | -62% | CC(C)CN(CC(C)C)S(=O)(=O)NC(=O)Nc1c(C(C)C)cccc1C(C)C | 6.38 | – | -61% |
| – | – | COc1cccc(OC)c1OC(=O)[N-]S(=O)(=O)Oc1c(C(C)C)cccc1C(C)C.[Na+] | 4.32 | -49% | – |
| – | – | CC(C)c1cccc(C(C)C)c1OS(=O)(=O)NC(=O)Sc1c(C(C)C)cccc1C(C)C | 5.06 | -17% | – |
| – | – | CC(C)c1cccc(C(C)C)c1OS(=O)(=O)NC(=O)Oc1ccc(Cl)cc1 | 4.01 | -8% | – |
| – | – | CC(C)c1cccc(C(C)C)c1OC(=O)NS(=O)(=O)Oc1c(C(C)(C)C)cccc1C(C)(C)C | 4.30 | -55% | -46% |
| – | – | CC(C)c1cccc(C(C)C)c1OS(=O)(=O)NC(=O)Oc1ccc(F)cc1F | < 4.30 | -5% | – |
| – | – | CC(C)c1cccc(C(C)C)c1OC(=O)NS(=O)(=O)Oc1ccc(F)cc1F | < 4.30 | -11% | – |
| – | – | Cc1cc(C)c(C)c(OC(=O)NS(=O)(=O)Oc2c(C(C)C)cccc2C(C)C)c1C | < 4.30 | -17% | – |
| – | – | CC(C)c1ccccc1OC(=O)NS(=O)(=O)Oc1c(C(C)C)cccc1C(C)C | < 4.30 | -37% | – |
| – | – | Cc1cccc(C)c1OS(=O)(=O)NC(=O)Oc1c(C(C)C)cccc1C(C)C | < 4.30 | -58% | -37% |
| – | – | CCOC(=O)[N-]S(=O)(=O)Oc1c(C(C)C)cccc1C(C)C.[Na+] | < 4.30 | 17% | – |
| – | – | CC(=O)c1cc(C(C)C)c(OC(=O)NS(=O)(=O)Oc2c(C(C)C)cccc2C(C)C)c(C(C)C)c1 | 4.38 | -16% | – |
| – | – | CC(C)c1cccc(C(C)C)c1OS(=O)(=O)NC(=O)OC1C2CC3CC(C2)CC1C3 (stereo not drawn) | 4.64 | -36% | – |
| – | – | Cc1cccc(C)c1OC(=O)NS(=O)(=O)Oc1c(C(C)C)cccc1C(C)C | < 4.30 | -37% | – |
| 86% | -62% | CCC(C)N(C(C)CC)S(=O)(=O)NC(=O)Nc1c(C(C)C)cccc1C(C)C (stereo not drawn) | 7.00 | – | -65% |
| 193% | -67% | CCCCCN(CCCCC)S(=O)(=O)NC(=O)Nc1c(C(C)C)cccc1C(C)C | 6.38 | – | -68% |
| – | – | CC(C)c1cccc(C(C)C)c1OS(=O)(=O)NC(=O)O[C@@H]1C[C@H](C)CCC1C(C)C (stereo partly drawn) | 4.68 | -40% | – |
| – | – | CC(C)c1cc(Cl)cc(C(C)C)c1OC(=O)NS(=O)(=O)Oc1c(C(C)C)cccc1C(C)C | 4.38 | 2% | – |
| – | – | CCCCCCCCCCCCOC(=O)NS(=O)(=O)Oc1c(C(C)C)cccc1C(C)C | 4.89 | -62% | 1% |

| Compound | Delta HDL [4] | Delta TC [5] | pIC50 [1] | Delta TC [2] | Delta TC [3] |
| --- | --- | --- | --- | --- | --- |
| CCCCCCCCN(CCCCCCCC)S(=O)(=O)NC(=O)Oc1c(C(C)C)cccc1C(C)C | 156% | -80% | 4.24 | – | -67% |
| CCCCCN(CCCCC)S(=O)(=O)NC(=O)Oc1c(C(C)C)cccc1C(C)C | 166% | -73% | 5.89 | – | -66% |
| COc1cc(C(C)(C)C)c(OC(=O)NS(=O)(=O)Oc2c(C(C)C)cccc2C(C)C)c(C(C)(C)C)c1 | – | -62% and -76% | – | – | -42% and -58% |
| CC(C)c1cccc(C(C)C)c1OS(=O)(=O)NC(=O)Oc1c(-c2ccccc2)cccc1-c1ccccc1 | 21% | -38% | 4.92 | -46% | – |
| CC(C)c1cccc(C(C)C)c1OC(=O)NS(=O)(=O)N(C(C)C)C1CCCCC1 | 188% | -71% | 5.29 | – | -49% |
| CC(C)c1cccc(C(C)C)c1OC(=O)NS(=O)(=O)Oc1c(C(C)C)cccc1C(C)C | 233% and 345% | -64% and -68% | – | – | -59% and -54% |
| CCCCCCCCN(C)S(=O)(=O)NC(=O)Oc1c(C(C)C)cccc1C(C)C | 88% | -64% | 4.66 | – | -57% |
| CC(C)c1cccc(C(C)C)c1OC(=O)NS(=O)(=O)N(c1ccccc1)c1ccccc1 | 320% | -37% | 4.24 | – | -46% |
| CCCCCCN(CCCCCC)S(=O)(=O)NC(=O)Oc1c(C(C)C)cccc1C(C)C | 144% | -75% | 5.38 | – | -74% |
| CC(C)c1cccc(C(C)C)c1OC(=O)NS(=O)(=O)N(Cc1ccccc1)C(C)C | 114% | -69% | 4.92 | – | -59% |
| CC(C)c1cc(F)cc(C(C)C)c1OC(=O)NS(=O)(=O)Oc1c(C(C)C)cccc1C(C)C | 143% | -52% | < 4.30 | -72% | – |
| CCCCN(CCCC)S(=O)(=O)NC(=O)Oc1c(C(C)C)cccc1C(C)C | 109% and 113% | -69% and -72% | – | – | -64% and -47% |
| CC(C)c1cccc(C(C)C)c1OC(=O)NS(=O)(=O)N(C(C)C)C(C)C | 82% | -59% | 4.82 | – | -65% |
| COc1cc(C(C)(C)C)c(OC(=O)NS(=O)(=O)Nc2c(C(C)C)cccc2C(C)C)c(C(C)(C)C)c1 | 86% | -47% | 4.82 | – | -29% |
